What was measured:
E. coli K12 (NCTC 10538) = assay type: cell-based; settings: 40 μM Polymyxin B, anti-Gal IgM M86 25 μg/mL, MFI (FITC) over vehicle control
Procedure: The assays were carried out in polystyrene 96-well U bottom plates (Costar). […] The samples were incubated for 1 hour at room temperature shaking at 450 rpm. […] Data from all samples were analysed using Kaluza software (Beckman Coulter).

[1] = system: P. aeruginosa (ATCC 27853); assay: Flow cytometric antibody recruitment assay using anti-Gal IgM antibody M86, P. aeruginosa; assay type: cell-based; settings: anti-Gal IgM M86 40 μg/mL, MFI (FITC) over vehicle control
Procedure: Flow Cytometric Antibody Recruitment Assay Using an Anti-Galα1-3Galβ1-4GlcNAc (Anti-Gal) Antibody
A secondary fluorescently labelled anti-IgM antibody was used to detect the anti-Gal antibody binding.
The assays were carried out in polystyrene 96-well U bottom plates (Costar). Frozen stocks of P. aeruginosa (American Type Culture Collection, ATCC 27853) in mid-exponential phase were thawed, centrifuged and resuspended in LB broth, Miller (Fisher BP1426-500) at OD595=0.2. The bacteria were grown to mid-exponential phase (OD595=0.4), washed once with Hank's Balanced Salt Solution with calcium and magnesium (HBSS+/+) and then resuspended in HBSS+/+ at a bacterial OD595=0.6. […] After three final washes with 200 μL HBSS+/+, the bacteria were resuspended in 200 μL HBSS+/+ and evaluated for anti-Gal antibody binding on a Cytoflex flow cytometer (Beckman Coulter). 50,000 counts of bacterial particles were sampled and the median fluorescent shift was recorded in the FITC-A channel. Data from all samples were analysed using Kaluza software (Beckman Coulter). […] The fold shift over background was calculated by dividing the Median Fluorescent Intensity (MFI) obtained in the presence of 20 μM of the Example compounds by the MFI value obtained in the vehicle controls, i.e., the absence of Examples. […] The shift in fluorescence intensity (FITC) occurs due to the binding event at each end of the molecule.

Polymyxin B was tested, and the “IgM Recruitment (Average fold change)” value (E. coli K12 (NCTC 10538)) was 4 fold change and the “IgM Recruitment (20 μM, Average fold change)” value [1] was 1 fold change.

— patent publication US20210085798A1, “IMMUNITY LINKER MOLECULES AND THEIR USE IN THE TREATMENT OF INFECTIOUS DISEASES” (CENTAURI THERAPEUTICS LIMITED, priority 2018, published 2021)
